From US20220089592A1, “IMIDAZO[1,2-A]PYRIDINYL DERIVATIVES AS IRAK4 INHIBITORS” (priority 2019, published 2022)

What was measured:
IRAK4 [1] = target: T1, IRAK4 (Homo sapiens, UniProt Q9NWZ3); experiment: 2-hour 10 μM ATP Biochemical Assay (MesoScale Detection format; IRAK4 phosphorylation of biotin labeled IRAK1 activation loop peptide); conditions: IRAK4 MSD BIOCHEMICAL (10 μM ATP) IC50 (μM), 1 nM IRAK4, 2 hours
T1 sequence (Q9NWZ3 1-460): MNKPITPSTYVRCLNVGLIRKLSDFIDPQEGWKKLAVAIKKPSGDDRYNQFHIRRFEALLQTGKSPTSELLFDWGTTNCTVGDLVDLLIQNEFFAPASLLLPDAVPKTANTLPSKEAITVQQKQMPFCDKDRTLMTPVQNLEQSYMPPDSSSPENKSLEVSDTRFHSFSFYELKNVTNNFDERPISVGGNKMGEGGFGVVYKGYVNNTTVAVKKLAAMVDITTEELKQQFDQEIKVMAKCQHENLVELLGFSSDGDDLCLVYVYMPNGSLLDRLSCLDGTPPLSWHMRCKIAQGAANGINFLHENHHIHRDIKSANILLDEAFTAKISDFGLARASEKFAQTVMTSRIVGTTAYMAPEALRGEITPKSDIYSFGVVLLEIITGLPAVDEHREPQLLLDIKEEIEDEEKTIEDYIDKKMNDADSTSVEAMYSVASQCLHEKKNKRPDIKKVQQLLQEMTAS
Procedure, shortened: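 Electrochemiluminescent MSD readout: after streptavidin capture, phosphothreonine on the biotin-labelled IRAK1 activation-loop peptide detected by rabbit antibody and Sulfo-Tag secondary. Phosphorylation ran 2 h with 10 μM ATP before EDTA quench.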

IRAK4 [2] = target: T1, IRAK4; experiment: 2-hour 1 mM ATP IRAK4 Biochemical assay (as above, but with 100 pM IRAK4 and 1 mM ATP); conditions: IRAK4 MSD BIOCHEMICAL (1 mM ATP) IC50 (μM), 100 pM IRAK4, 2 hours
Procedure, shortened: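 MSD electrochemiluminescence read-out: biotinylated peptide product bound to streptavidin plates, probed with anti-P-Thr rabbit antibody and Sulfo-Tag goat anti-rabbit. Kinase reaction used 1 mM ATP and 100 pM IRAK4 over 2 hours before EDTA quench.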

SMILES | IC50 (IRAK4 [1]) [µM] | IC50 (IRAK4 [2]) [µM]
CCOc1cc2nc(CC3CCOC3)cn2cc1NC(=O)c1ccn(C)n1 (stereo not shown) [Example 155, N-(7-ethoxy-2-((tetrahydrofuran-3-yl)methyl)imidazo[1,2-a]pyridin-6-yl)-1-methyl-1H-pyrazole-3-carboxamide] | 0.005 | 0.016
CCOc1cc2nc(C3CCN(C)C3=O)cn2cc1NC(=O)c1cccc(C(F)F)n1 (stereo not shown) [Example 156, 6-(difluoromethyl)-N-(7-ethoxy-2-(1-methyl-2-oxopyrrolidin-3-yl)imidazo[1,2-a]pyridin-6-yl)picolinamide] | 0.001 | 0.003
CCOc1cc2nc(CC3CCOC3)cn2cc1NC(=O)c1coc(C)n1 (stereo not shown) [Example 159, N-(7-ethoxy-2-((tetrahydrofuran-3-yl)methyl)imidazo[1,2-a]pyridin-6-yl)-2-methyloxazole-4-carboxamide] | 0.006 | 0.051
CCOc1cc2nc(C3(C#N)CCOCC3)cn2cc1NC(=O)c1cccc(C(F)F)n1 [Example 160, N-(2-(4-cyanotetrahydro-2H-pyran-4-yl)-7-ethoxyimidazo[1,2-a]pyridin-6-yl)-6-(difluoromethyl)picolinamide] | 0.001 | 0.002
CC1(COc2cc3nc(CC4CCOC4)cn3cc2NC(=O)c2cccc(C(F)(F)F)n2)COC1 (stereo not shown) [Example 163, N-(7-((3-methyloxetan-3-yl)methoxy)-2-((tetrahydrofuran-3-yl)methyl)imidazo[1,2-a]pyridin-6-yl)-6-(trifluoromethyl)picolinamide] | 0.002 | 0.007
CC1(COc2cc3nc(C4CCOCC4)cn3cc2NC(=O)c2cccc(C(F)(F)F)n2)COC1 [Example 166, N-(7-((3-methyloxetan-3-yl)methoxy)-2-(tetrahydro-2H-pyran-4-yl)imidazo[1,2-a]pyridin-6-yl)-6-(trifluoromethyl)picolinamide] | 0.002 | 0.009
CCOc1cc2nc(C(O)C3CC3)cn2cc1NC(=O)c1cccc(C(F)(F)F)n1 (stereo not shown) [Example 168, N-(2-(cyclopropyl(hydroxy)methyl)-7-ethoxyimidazo[1,2-a]pyridin-6-yl)-6-(trifluoromethyl)picolinamide] | 0.007 | 0.015
N#CCOc1cc2nc(C3CCOCC3)cn2cc1NC(=O)c1cccc(C(F)F)n1 [Example 172, N-(7-(cyanomethoxy)-2-(tetrahydro-2H-pyran-4-yl)imidazo[1,2-a]pyridin-6-yl)-6-(difluoromethyl)picolinamide] | 0.002 | 0.004
CC(C#N)Oc1cc2nc(C3CCOCC3)cn2cc1NC(=O)c1cccc(C(F)F)n1 (stereo not shown) [Example 173, N-(7-(1-cyanoethoxy)-2-(tetrahydro-2H-pyran-4-yl)imidazo[1,2-a]pyridin-6-yl)-6-(difluoromethyl)picolinamide] | 0.001 | 0.001
CC1CCC(Oc2cc3nc(C4CCOCC4)cn3cc2NC(=O)c2cccc(C(F)F)n2)C1 (stereo not shown) [Example 178, 6-(difluoromethyl)-N-(7-((3-methylcyclopentyl)oxy)-2-(tetrahydro-2H-pyran-4-yl)imidazo[1,2-a]pyridin-6-yl)picolinamide] | 0.001 | 0.001
N#CC1CCC(Oc2cc3nc(C4CCOCC4)cn3cc2NC(=O)c2cccc(C(F)F)n2)C1 (stereo not shown) [Example 179, N-(7-((3-cyanocyclopentyl)oxy)-2-(tetrahydro-2H-pyran-4-yl)imidazo[1,2-a]pyridin-6-yl)-6-(difluoromethyl)picolinamide] | 0.001 | 0.001
CC1(C)CCC(Oc2cc3nc(C4CCOCC4)cn3cc2NC(=O)c2cccc(C(F)F)n2)C1 (stereo not shown) [Example 180, 6-(difluoromethyl)-N-(7-((3,3-dimethylcyclopentyl)oxy)-2-(tetrahydro-2H-pyran-4-yl)imidazo[1,2-a]pyridin-6-yl)picolinamide] | 0.001 | 0.001
CN1CCC(Oc2cc3nc(C4CCOCC4)cn3cc2NC(=O)c2cccc(C(F)F)n2)C1=O (stereo not shown) [Example 181, 6-(difluoromethyl)-N-(7-((1-methyl-2-oxopyrrolidin-3-yl)oxy)-2-(tetrahydro-2H-pyran-4-yl)imidazo[1,2-a]pyridin-6-yl)picolinamide] | 0.001 | 0.002
O=C(Nc1cn2cc(C3CCOCC3)nc2cc1OC1COC1)c1cccc(C(F)F)n1 [Example 182, 6-(difluoromethyl)-N-(7-(oxetan-3-yloxy)-2-(tetrahydro-2H-pyran-4-yl)imidazo[1,2-a]pyridin-6-yl)picolinamide] | 0.001 | 0.004
CC1(C)CC(Oc2cc3nc(C4CCOCC4)cn3cc2NC(=O)c2cccc(C(F)F)n2)CO1 (stereo not shown) [Example 184, 6-(difluoromethyl)-N-(7-((5,5-dimethyltetrahydrofuran-3-yl)oxy)-2-(tetrahydro-2H-pyran-4-yl)imidazo[1,2-a]pyridin-6-yl)picolinamide] | 0.001 | 0.002
O=C(Nc1cn2cc(C3CCOCC3)nc2cc1OC1CCOCC1)c1cccc(C(F)F)n1 [Example 185, 6-(difluoromethyl)-N-(2-(tetrahydro-2H-pyran-4-yl)-7-((tetrahydro-2H-pyran-4-yl)oxy)imidazo[1,2-a]pyridin-6-yl)picolinamide] | 0.001 | 0.002
CCOc1cc2nc(C3CCOCC3)cn2cc1NC(=O)c1csc(CC)n1 [Example 202, N-(7-ethoxy-2-(tetrahydro-2H-pyran-4-yl)imidazo[1,2-a]pyridin-6-yl)-2-ethylthiazole-4-carboxamide] | 0.002 | 0.004
CCOc1cc2nc(C3CCOCC3)cn2cc1NC(=O)c1csc(C2CC2)n1 [Example 203, 2-cyclopropyl-N-(7-ethoxy-2-(tetrahydro-2H-pyran-4-yl)imidazo[1,2-a]pyridin-6-yl)thiazole-4-carboxamide] | 0.001 | 0.001
CCOc1cc2nc(C3CCOCC3)cn2cc1NC(=O)c1ccn(C)n1 [Example 204, N-(7-ethoxy-2-(tetrahydro-2H-pyran-4-yl)imidazo[1,2-a]pyridin-6-yl)-1-methyl-1H-pyrazole-3-carboxamide] | 0.004 | 0.021
CCOc1cc2nc(C3CCOCC3)cn2cc1NC(=O)c1ccn(CC)n1 [Example 205, N-(7-ethoxy-2-(tetrahydro-2H-pyran-4-yl)imidazo[1,2-a]pyridin-6-yl)-1-ethyl-1H-pyrazole-3-carboxamide] | 0.003 | 0.012
CCOc1cc2nc(C3CCOCC3)cn2cc1NC(=O)c1ccn(C(C)C)n1 [Example 206, N-(7-ethoxy-2-(tetrahydro-2H-pyran-4-yl)imidazo[1,2-a]pyridin-6-yl)-1-isopropyl-1H-pyrazole-3-carboxamide] | 0.005 | 0.019
CCOc1cc2nc(C3CCOCC3)cn2cc1NC(=O)c1ccn(C2CCCC2)n1 [Example 208, 1-cyclopentyl-N-(7-ethoxy-2-(tetrahydro-2H-pyran-4-yl)imidazo[1,2-a]pyridin-6-yl)-1H-pyrazole-3-carboxamide] | 0.002 | 0.008
CCOc1cc2nc(C3CCOCC3)cn2cc1NC(=O)c1ccn(C2CC2(F)F)n1 (stereo not shown) [Example 209, 1-(2,2-difluorocyclopropyl)-N-(7-ethoxy-2-(tetrahydro-2H-pyran-4-yl)imidazo[1,2-a]pyridin-6-yl)-1H-pyrazole-3-carboxamide] | 0.005 | 0.009
